Results on eleven compounds are retold here after patent publication US10040783B2 (Emory University, priority 2011, dated 2018).

Series [1] deals with EP4 receptor (Homo sapiens, UniProt P35408). Nature of the series: Schild regression analysis for EP4 receptor. The format is cell-based. Particulars: for Kb: read-out: KB (μM) EP4, from Schild regression analysis. The text has this: (§1) Information on the modality of antagonism can be obtained by performing Schild regression analysis characterized by: log (dr−1)=log XB−log KB. In the equation, dose ratio (dr)=fold shift in EC50, XB=[antagonist], KB=equilibrium dissociation constant for the antagonist-receptor complex. […] Thus, a lower KB value indicates a higher inhibitory potency.
Sequence of EP4 receptor (P35408 whole entry): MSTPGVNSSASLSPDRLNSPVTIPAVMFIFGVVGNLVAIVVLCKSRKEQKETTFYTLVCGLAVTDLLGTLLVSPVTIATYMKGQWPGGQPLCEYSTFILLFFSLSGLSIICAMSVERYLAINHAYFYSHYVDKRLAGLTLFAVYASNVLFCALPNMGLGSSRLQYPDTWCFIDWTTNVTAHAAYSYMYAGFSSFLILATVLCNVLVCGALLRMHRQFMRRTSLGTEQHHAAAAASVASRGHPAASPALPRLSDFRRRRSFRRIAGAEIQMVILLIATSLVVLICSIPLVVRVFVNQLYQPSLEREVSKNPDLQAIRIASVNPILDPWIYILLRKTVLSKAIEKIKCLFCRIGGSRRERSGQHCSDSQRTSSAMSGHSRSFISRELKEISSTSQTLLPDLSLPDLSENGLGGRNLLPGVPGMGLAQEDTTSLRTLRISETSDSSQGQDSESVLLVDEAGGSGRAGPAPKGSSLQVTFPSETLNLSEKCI

The subject of series [2] is rat primary hippocampal cultures. Briefly: NMDA-induced LDH release (excitotoxicity) in primary hippocampal cultures. It counts as cell-based. Particulars: 10 μM compound, NMDA 30 μM plus glycine 10 μM overnight; for activity at 10 µM: Rattus norvegicus, read-out: NMDA-induced LDH release, % of control. An excerpt: Excitotoxicity caused by NMDA receptor activation is recognized to induce neuronal apoptosis both in vitro and in vivo in cortical neurons. NMDA receptor activation can, via COX-2, cause prostaglandin production, including PGE2. Activation of the EP2 receptor by PGE2 in microglia can promote neuroinflammation in several models of neurodegenerative diseases. The effect of EP2 antagonist compounds were examined on NMDA-induced excitotoxicity. Rat primary hippocampal cultures (DIV13-15) were preincubated with vehicle or increasing concentrations of test compound for 15-20 min, followed by treatment with NMDA (30 μM) plus glycine (10 μM) overnight in continued presence of the test compound. Lactate dehydrogenase (LDH) release was used as the measure of neuronal injury.
(In general: LDH in the medium is a marker of cell lysis.)

The target in series [3] is EP2 receptor (Homo sapiens, UniProt P43116). Nature of the series: Schild regression of PGE2-induced EP2 activation in C6G-EP2 cells. The format is cell-based. The arrangement: expressed in transfected cells; host or cells: C6G-EP2 cells. As to the method:
as §1
To perform the Schild regression, C6G-EP2 cells were incubated first with vehicle, 0.01, 0.1 or 1 μM of test compound for 5 minutes, then with increasing concentrations of PGE2 to activate the EP2 receptor.

For series [4], the system named is C6G cells. Nature of the series: CellTiter-Glo luminescent cell viability assay (cytotoxicity). (In general: In ATP-based viability assays light output follows the ATP content of the culture.)
Series [5] in a line: in vitro. Particulars: rat, C6G cells.
Series [6] deals with T1, human DP1 receptors (Homo sapiens, UniProt Q13258).
T1 construct: expressed in transfected cells
T1 sequence (Q13258 1-359): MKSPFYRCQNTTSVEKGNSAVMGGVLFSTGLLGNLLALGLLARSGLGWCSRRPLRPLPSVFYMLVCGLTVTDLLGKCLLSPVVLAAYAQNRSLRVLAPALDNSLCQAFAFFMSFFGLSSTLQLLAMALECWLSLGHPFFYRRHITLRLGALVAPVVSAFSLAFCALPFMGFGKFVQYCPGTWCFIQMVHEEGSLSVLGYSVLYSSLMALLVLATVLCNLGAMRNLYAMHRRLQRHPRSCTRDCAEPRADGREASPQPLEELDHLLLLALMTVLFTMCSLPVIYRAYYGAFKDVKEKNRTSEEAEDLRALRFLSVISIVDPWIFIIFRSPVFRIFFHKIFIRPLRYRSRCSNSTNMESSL
Briefly: DP1 assay: BW245C-induced cAMP, TR-FRET, in C6G cells expressing DP1. It counts as cell-based. Particulars: agonist BW245C. As to the method:
DP1 Assay Both DP1 and EP2 receptors are positively coupled through Gαs to cAMP production and conduct very similar physiological and pathological events. Among the eight canonical prostanoid receptors, DP1 has similarities to EP2 at both protein and DNA level. C6G cells that stably expressing human DP1 receptors were seeded into 384-well plates in 30 μL complete medium (4,000 cells per well) and grown overnight. The medium was thoroughly withdrawn and 10 μL HBSS (HyClone) plus 20 μM rolipram were added into the wells to block phosphodiesterase. […] The cells were lysed in 10 μL lysis buffer containing the FRET acceptor cAMP-d2 and 1 min later another 10 μL lysis buffer with anti-cAMP-Cryptate was added. […] The FRET signal is expressed as F665/[…].

[7] abbreviates: C6G-EP2 cells, PGE2 as agonist, read-out: KB (nM) EP2, from Schild regression analysis.
The mark [8] stands for this setting: additional compounds tables, read-out: EP2 KB.

Like-named read-outs stand apart in the source and are kept apart here.

Sequence of EP2 receptor (P43116 whole entry): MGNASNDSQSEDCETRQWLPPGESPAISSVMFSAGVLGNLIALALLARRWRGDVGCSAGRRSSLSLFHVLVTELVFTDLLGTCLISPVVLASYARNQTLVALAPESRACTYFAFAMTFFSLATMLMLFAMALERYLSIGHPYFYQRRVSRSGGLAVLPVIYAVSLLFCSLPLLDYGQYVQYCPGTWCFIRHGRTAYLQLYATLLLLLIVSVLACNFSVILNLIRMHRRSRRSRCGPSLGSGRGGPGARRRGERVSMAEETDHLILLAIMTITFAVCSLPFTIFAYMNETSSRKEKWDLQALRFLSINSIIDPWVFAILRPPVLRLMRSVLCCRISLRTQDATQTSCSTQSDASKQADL

For `COc1cc(/C=C/C(=O)NCCN2CCCCC2C)cc(OC)c1OC` (stereo not shown) [1e], the Kb in series [1] stood at 18.9 µM. Moreover, the “NMDA-induced LDH release, % of control” value in series [2] was “did not show any effect and not”. Also, in series [3] (C6G-EP2 cells, PGE2 as agonist), the “KB (nM) EP2, from Schild regression analysis” value is “Inactive”. The CC50 in series [4] (read-out: CC50, half maximal cytotoxic concentration, C6G cells after 48 h incubation) turned out to be 316 µM.
As to `COc1cc(C=CC(=O)NCCn2c(C)cc3cc(F)ccc32)cc(OC)c1OC` [1f, N-(2-(5-fluoro-2-methyl-1H-indol-1-yl)ethyl)-3-(3,4,5-trimethoxyphenyl)acrylamide], in series [1], the “Selective index, KB EP4/KB EP2” value was 2,600 and the Kb was 5.4 µM. In addition, the activity at 10 µM in series [2] was found to be 38.5%. The same compound registered a CC50 at 48 h in series [5] of 155 µM. Also, the Kb in series [3] (setting [7]) was determined as 2.1 nM. Also, the “Therapeutic index (in vitro), CC50/KB for EP2” value (shortened to “Therapeutic index (in vitro)”) in series [4] is on record as 73,800.
Take `COc1ccc(/C=C/C(=O)NCCn2c(C)cc3ccccc32)cc1Cl` [1w]: the “Selective index, KB EP4/KB EP2” value in series [1] was 2,470. Besides, the Kb in series [1] is 4.7 µM; in series [3] (setting [7]), 1.9 nM. For the same compound, the activity at 10 µM in series [2] came out at 78.4%. In series [5], the CC50 at 48 h stood at 481 µM. In addition, in series [4], the “Therapeutic index (in vitro)” value is 253,000.
Take `COc1ccc(/C=C/C(=O)NCCn2c(C)cc3cc(F)ccc32)cc1Cl` [1x]: in series [1], the “Selective index, KB EP4/KB EP2” value is 525 and the Kb was 3.3 µM. Besides, the CC50 at 48 h in series [5] stood at 601 µM. Moreover, the Kb in series [3] (setting [7]) came out at 6.3 nM. In addition, the “Therapeutic index (in vitro)” value in series [4] is 95,400.
For `COc1cc(OC)c(C=CC(=O)NCCn2c(C)cc3ccccc32)cc1Br` [1y, 3-(5-bromo-2,4-dimethoxyphenyl)-N-(2-(2-methyl-1H-indol-1-yl)ethyl)acrylamide], in that order: 859, 6.9 µM, 1240 µM, 8 nM and 155,000.
On to `COc1ccc(C=CC(=O)NCCn2c(C)cc3ccccc32)cc1OC` [A2, 3-(3,4-dimethoxyphenyl)-N-(2-(2-methyl-1H-indol-1-yl)ethyl)acrylamide], for which, in series [1], the “Selective index, KB EP4/KB EP2” value is given as 435 and the Kb stood at 2 µM. Further, the activity at 10 µM in series [2] is 77.8%. In series [5], the CC50 at 48 h amounted to 397 µM. In series [3] (C6G-EP2 cells, PGE2), this compound showed a Schild plot slope of 1.1. Also, in series [3] (setting [7]), the Kb worked out at 4.6 nM. Besides, in series [3] (Schild plots), the “Modality of antagonism on EP2 receptor” value is listed as “competitive antagonism”. Further, the “Therapeutic index (in vitro)” value in series [4] is 86,300.
As for `COc1cc(/C=C/C(=O)NCCc2c(C)[nH]c3ccccc23)cc(OC)c1OC` [TG7-74], the values for the Kb in series [6] and in series [3] (setting [8]) were 0.112 µM and 2.9 nM, respectively.
On the same counts, the results for `COc1ccc(/C=C/C(=O)NCCc2c(C)[nH]c3ccccc23)cc1OC` [TG7-76] are 0.227 µM and 6 nM.
For `Cc1cc(/C=C/C(=O)NCCn2c(C)cc3ccccc32)cc(C)c1F` [TG7-98, 3-(4-fluoro-3,5-dimethylphenyl)-N-(2-(2-methyl-1H-indol-1-yl)ethyl)acrylamide], in that order: 0.745 µM and 4.4 nM.
Compound `COc1ccc(C(=O)NCCn2c(C)cc3ccccc32)cc1OC` [TG7-112-2, 3,4-dimethoxy-N-(2-(2-methyl-1H-indol-1-yl)ethyl)benzamide] came in with a Kb in series [6] of 1.43 µM.
For the compound `CC(=O)Nc1ccc(C(=O)NCCn2c(C)cc3ccccc32)cc1` [TG7-117, 4-acetamido-N-(2-(2-methyl-1H-indol-1-yl)ethyl)benzamide], the values for the Kb in series [6] and in series [3] (setting [8]) were 5.83 µM and 83 nM, respectively.
